Results: paper PMC3709979 (PLoS ONE, 2013)
Several values for one entry are separate records, joined by “and”; a condition that tells them apart may be missing. Equal values may be shown once. Entries after “also recorded” stand apart in the source; their conditions may differ. Read-outs that look alike come from different tables or passages of the source.

Experiments:
[1] = test system: estrogen-responsive alkaline phosphatase in Ishikawa cells; experiment: Induction of estrogen-responsive alkaline phosphatase (AP) in Ishikawa cells; details: 96 h; for EC50: Homo sapiens, Ishikawa
Experimental: Ishikawa cells (5×10^4 cells/well) were pre-incubated in 96 well plates in estrogen-free medium for 24 h. Test samples dissolved in DMSO, were added at different concentrations and the DMSO concentration was kept lower than 0.1%. […] Plates were incubated at 37°C for 96 h. […] The maximum slope of the kinetic curve for every experiment well was calculated.

[2] = test system: estrogen responsive element (ERE)-luciferase in MCF-7 cells; experiment: ERE-luciferase induction in MCF-7 cells; type: cell-based; details: 24 h; for ERE-luciferase induction in MCF-7 cells (in words): isolated compounds tested at 0.1 µM and 1 µM
Experimental: The Dual-Luciferase Reporter Assay System protocol from Promega (Madison, WI) was used to evaluate the activation of ERs through interaction with ERE at the promoter of estrogen responsive genes, resulting in the expression of the fused luciferase reporter. Briefly, MCF-7 cells grown in phenol-red free medium for 48 h, were trypsinized and re-suspended in serum-free medium at 1×10^7 cells/mL followed by a 10 min incubation at room temperature with pERE (3 µg/mL) obtained from Dr. V. C. Jordan, Northwestern University, and pRL-TK (Promega) (1 µg/mL) in a 4 mm gap cuvette before electroporation at 950 µF and 250 V using the Gene Pulser Xcell (BioRad Laboratories, Hercules, CA). Transfected cells were diluted in serum containing medium and plated in 24-well plates (2×10^5 cells/well). After 24 h, the cells were washed with PBS and treated with two concentrations of the crude extracts (2 µg/mL and 10 µg/mL) and two concentrations of the isolated compounds (0.1 µM and 1 µM), for an additional 24 h. […] Cell lysates (20 µL) were placed in white Costar 96-well plates, before the injection of Luciferase Assay reagent (100 µL) followed by a 12 s read by a FLUOstar OPTIMA (BMG Lab Tech, Offenburg, Germany). To quench the firefly luciferase expression and activation of the renilla expression, Stop & Glo reagent (100 µL) was injected followed by a 12 s read. In order to exclude the errors in transfection efficiency, average read out of the luciferase activity was normalized to the average associated pRL-TK read outs (renilla activity). The results were converted into fold induction by normalizing to DMSO.

[3] = biological target: T1, human recombinant ERβ (Homo sapiens, UniProt Q92731); set-up: purchased Invitrogen (Grand Island, NY); method as in J. Agric. Food Chem. 2005, 53, 6246–6253; details: read-out: IC50 ERβ; isolated compounds; ref J. Agric. Food Chem. 2005, 53, 6246–6253; cited from earlier work
[4] = biological target: T1, human recombinant ERβ; experiment: biochemical
Experimental: (§1) To correct for non-specific binding, a control containing all the added components except for the hot mix was considered. The incubation was carried out at room temperature for 2 h before 100 µL of 50% hydroxyapatite slurry (HAPS) was added. The tubes were incubated on ice for 15 min with vortexing every 5 min. The appropriate ER wash buffer was added (1 mL), and the tubes were vortexed before centrifuging at 10000×g for 5 min. The supernatant was discarded, and this wash step was repeated three times. The HAPS pellet containing the ligand-receptor complex was re-suspended in 200 µL of ethanol and transferred to scintillation vials. An additional 200 µL of ethanol was used to rinse the centrifuge tube.

[5] = test system: Tff1 mRNA in T47D cells; experiment: Tff1 mRNA induction in T47D cells (qRT-PCR); type: cell-based; details: 8-PN 100 nM, LigF 5 µM, LigC 5 µM, 6 h, relative to DMSO
Experimental: Quantitative real-time polymerase chain reaction (qRT-PCR) was used to examine the modulation of the Tff1 induction following treatment of T47D cells with the extracts and the related compounds. Experiments were performed four independent times in triplicates. T47D cells (4×10^4 cells/mL) were preincubated in estrogen-free media for 72 h. […] Total RNA was isolated using the TRIzol Plus RNA purification kit (Invitrogen) and quantitated by UV analysis at 260 nm. cDNA synthesis was performed using qScript cDNA synthesis kit (Quanta Biosceiences) in a total volume of […], containing 4 µL qScript reaction mixture (5X), 1 µL qScript RT, 10 µL nuclease-free water, and 5 µL of RNA sample. The reaction was carried out for 5 min at 22°C, followed by 42°C for 30 min and a 5 min incubation step at 85°C. The PCR and subsequent analyses were performed using the ABI StepOne Plus RT-PCR system (Applied Biosystems). Quantitation was performed using the TaqMan technology of Applied Biosystems. Tff1 was evaluated using a predeveloped gene expression primer/probe set (Applied Biosystems' Assay on Demand). Briefly, the PCR reaction mixture was prepared in a total volume of 20 µL, containing 1 µL 20X TagMan Gene Expression Assay, 10 µL 2X TaqMan Gene Expression Master Mix, 4 µL cDNA template, and 5 µL RNase-free water. The reaction mixture was incubated at 50°C for 2 min followed by 10 min at 95°C. Polymerase chain reactions were performed in triplicate and consisted of 40 cycles with 15 s denaturing step at 95°C and 1 min annealing/extending step at 60°C each. The fluorescence signal was measured during the last 30 s of the annealing/extension phase. Following analysis, a fluorescence threshold value was set and threshold cycle (Ct) values were determined. […] The final results were expressed as a fold induction, where the levels of Tff1 observed in the DMSO-treated samples was defined as one.

[6] = biological target: T2, ERα (Homo sapiens, UniProt P03372); experiment: biochemical
T2 sequence (P03372 1-595): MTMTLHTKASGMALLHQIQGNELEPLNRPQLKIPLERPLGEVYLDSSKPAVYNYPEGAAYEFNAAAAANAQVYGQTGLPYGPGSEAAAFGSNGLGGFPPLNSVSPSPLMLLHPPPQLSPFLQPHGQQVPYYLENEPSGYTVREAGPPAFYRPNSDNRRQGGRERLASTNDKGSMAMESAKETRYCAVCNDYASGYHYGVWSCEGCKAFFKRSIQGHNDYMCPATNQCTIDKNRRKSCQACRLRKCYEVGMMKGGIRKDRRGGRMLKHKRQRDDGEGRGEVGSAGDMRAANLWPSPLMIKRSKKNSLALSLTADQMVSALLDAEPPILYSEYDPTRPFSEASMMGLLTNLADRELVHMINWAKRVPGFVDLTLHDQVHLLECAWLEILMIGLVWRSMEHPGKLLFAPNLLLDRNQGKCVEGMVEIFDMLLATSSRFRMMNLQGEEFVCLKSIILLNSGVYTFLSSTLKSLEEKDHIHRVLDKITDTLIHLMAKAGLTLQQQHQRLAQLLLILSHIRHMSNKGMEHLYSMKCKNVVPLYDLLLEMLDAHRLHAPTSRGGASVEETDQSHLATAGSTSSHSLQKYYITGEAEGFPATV
Experimental: as §1

[7] = test system: Ishikawa cells; experiment: Cytotoxicity in cell culture assays; type: cell-based; details: AP assay, reduction in the estrogenic response
Excerpt: The Ishikawa cell line was provided by Dr. R. B. Hochberg (Yale University, New Haven, CT) and was maintained in Dulbecco's Modified Eagle Medium (DMEM/F12) containing 1% sodium pyruvate, 1% nonessential amino acids (NEAA), 1% glutamax-1, 0.05% insulin, and 10% heat-inactivated FBS [32], [33], [34]. […] Two days before treating the cells, the medium was replaced with phenol red-free DMEM/F12 medium containing charcoal/dextran-stripped FBS and supplements. […] However, alkaline phosphatase was not inducible in ECC1 cells obtained from ATCC. Despite this controversy, we will keep the conventional name, Ishikawa, for this cell line throughout this paper. The MCF-7 cell line was purchased from ATCC. […] Two days prior to treating the cells, the medium was replaced with phenol red-free RPMI 1640 medium containing charcoal/dextran-stripped FBS with acetone-washed activated charcoal (100mg/mL) at 4°C for 30 min and centrifuged at 4000 rpm for 15 min at 4°C. This step was repeated in triplicate. Extracts and compounds were not toxic to cells at the applied concentrations, under these experimental conditions. DMSO concentrations for all cell culture assays were below 0.1%.

[8] = Isomerization of isoliquiritigenin to liquiritigenin under bioassay conditions (LC-MS/LC-UV); type: physicochemical
Experimental: To evaluate this conversion and better define the compounds responsible for the observed estrogenic activity, LC-MS monitoring of the isomerization of these active principles in the cell-based assays was performed in parallel to every bioassay. One set of plates was considered for time 0, when there was no treatment and another set was considered for the final harvesting day for every experimental condition. The media exposed to cells were collected and extracted by adding sodium acetate buffer (100 mM, pH 5), followed by liquid-liquid extraction by water-saturated ethyl acetate.

[9] = biological target: T2, ERα
Experimental: as §1

[10] = biological target: T2, ERα; experiment: Pulsed ultrafiltration LC-MS screening for ERα ligands; type: binding; set-up: purchased Invitrogen (Grand Island, NY); details: crude MeOH extract 150 µg/ml, 1 h room temperature, denatured ER control
Experimental: A screening assay based on ultrafiltration mass spectrometry was used to identify the ligands of ER present in licorice crude extracts. Briefly, 150 µg/ml of the methanol crude extract was incubated for 1 h at room temperature with 50 pmol of ERα or ERβ in binding buffer consisting of 50 mM Tris-HCl (pH 7.5), 10% glycerol, 50 mM KCl, and 1 mM ethylenediaminetetraacetic acid (EDTA) in a total volume of 50 µL. Identical control incubations in which denatured ER was substituted for active ER was used to correct for nonspecific binding of compounds to the ultrafiltration membrane and holder. After incubation, each mixture was filtered through a Microcon (Millipore, Bedford, MA) YM-30 centrifugal filter containing a regenerated cellulose ultrafiltration membrane with a 30000 MW cutoff and washed three times with 200 µL aliquots of ammonium acetate buffer (pH 7.5) at 4°C to remove the unbound compounds. The bound ligands were released by adding 400 µL of methanol/water (90∶10; v/v) followed by centrifugation at 10000×g for 10 min. […] Aliquots (10 µL) were analyzed using LC-MS, which consisted of a reverse phase separation on a Shimadzu (Kyoto, Japan) Shim-Pack XR-ODS III C18 (1.6 µm, 2.0 mm ×50 mm) column and mass spectrometric analysis on a Shimadzu LCMS- IT-TOF mass spectrometer. […]

[11] = read-out: AP induction Ishikawa cells EC50

T1 sequence (Q92731 whole entry): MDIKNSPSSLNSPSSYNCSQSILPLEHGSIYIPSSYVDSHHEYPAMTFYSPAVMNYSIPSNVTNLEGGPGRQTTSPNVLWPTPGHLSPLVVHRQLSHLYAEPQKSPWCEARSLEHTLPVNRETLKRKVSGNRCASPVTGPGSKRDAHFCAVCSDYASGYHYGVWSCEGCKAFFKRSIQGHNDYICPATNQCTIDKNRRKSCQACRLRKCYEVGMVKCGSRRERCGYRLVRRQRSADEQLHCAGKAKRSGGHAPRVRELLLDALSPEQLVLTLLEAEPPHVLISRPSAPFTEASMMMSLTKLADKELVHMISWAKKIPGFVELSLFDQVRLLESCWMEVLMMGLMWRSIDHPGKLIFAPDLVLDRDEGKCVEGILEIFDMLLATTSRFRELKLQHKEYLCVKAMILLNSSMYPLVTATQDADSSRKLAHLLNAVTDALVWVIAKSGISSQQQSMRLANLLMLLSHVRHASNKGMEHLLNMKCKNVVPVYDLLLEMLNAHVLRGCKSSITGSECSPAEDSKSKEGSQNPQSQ

CC(C)=CCc1c(O)cc(O)c2c1O[C@H](c1ccc(O)cc1)CC2=O [8-PN, 8-prenylnaringenin]
EC50 ([1]; read-out: AP induction Ishikawa cells EC50, as given in text, 96 h): 6.6 nM | EC50 ([1]; read-out: AP induction Ishikawa cells EC50, isolated compounds, 96 h, n = 9): 6.65 ± 1.4 nM | ERE-luciferase induction in MCF-7 cells (in words) [2]: showed induction of ERE-luciferase | IC50 [3]: 1700 ± 100 nM

C[C@]12CC[C@@H]3c4ccc(O)cc4CC[C@H]3[C@@H]1CC[C@@H]2O [17β-estradiol, reference compound]
EC50 [1, 11]: 0.19 ± 0.05 nM

O=C(/C=C/c1ccc(O)cc1)c1ccc(O)cc1O [LigC, isoliquiritigenin]
IC50 [4]: 7800 ± 100 nM | EC50 [1, 11]: 2700 ± 200 nM | Tff1 mRNA induction in T47D cells [5]: induced Tff1, significantly | IC50 [6]: 16000 ± 1000 nM | concentrations with cytotoxic effects [7]: above 7.5 µM | isomerization of LigC to LigF ([8]; ER binding buffer, 2 h at room temperature, LC-UV): did not show any isomerization of LigC to LigF; also recorded: did not show a conversion of LigC to LigF | isomerization of LigC to LigF ([8]; cell media of AP assay, 96 h with Ishikawa cells at 37°C, LC-MS): significant reduction in the LigC content and a corresponding increase in LigF formation; also recorded: mostly converted to LigF | isomerization of LigC to LigF ([8]; cell media of mRNA induction assay, 6 h with T47D cells at 37°C, LC-MS): did not show a significant formation of LigF from LigC; also recorded: the conversion was limited

O=C1C[C@@H](c2ccc(O)cc2)Oc2cc(O)ccc21 [LigF, liquiritigenin]
EC50 [1, 11]: 3400 ± 400 nM | Maximum AP fold induction Ishikawa cells ([1]; maximum efficacy): 83 fold and 83.1±3.4 fold | Tff1 mRNA induction in T47D cells [5]: lower than that of 8-PN (0.1 µM), but the difference was not significant | IC50 ERα [9]: very weak affinity for ERα | fold induction at 0.1 µM ([2]; Homo sapiens, MCF7, isolated compounds at 100 nM, DMSO set to 1): 2.1 ± 0.4 | ERE-luciferase induction in MCF-7 cells (in words) [2]: showed induction of ERE-luciferase | IC50 [6]: > 200000 nM | binding to ERα in PUF-MS screening [10]: bound to ERα and ERβ

COc1cc(O)c(CC=C(C)C)c(O)c1C(=O)/C=C/c1ccc(O)cc1 [XH, xanthohumol]
AP induction Ishikawa cells EC50 ([1]; isolated compounds, n = 9): inactive | Tff1 mRNA induction in T47D cells [5]: no Tff1 activity | ERE-luciferase induction in MCF-7 cells (in words) [2]: did not show any induction of ERE-luciferase
